Entries after “also recorded” stand apart in the source; their conditions may differ.
How the values were obtained:
SERCA2a = biological target: T1, SERCA2a (Mus musculus, UniProt O55143); assay: NADH-coupled ATPase assay on mouse heart ventricular SR microsomes (mouse SR); type: biochemical; conditions: for SERCA2a mouse SR effect class: 10 μM (3 μM for 12b per Figure 6c), microsomal membrane vesicles; for SERCA2a ATPase activity in mouse SR vesicles (in words): 10 μM, vs 0.1 v/v% DMSO
T1 construct: host or cells: HL-1 cells
T1 sequence (O55143 1-998 isoform O55143-2): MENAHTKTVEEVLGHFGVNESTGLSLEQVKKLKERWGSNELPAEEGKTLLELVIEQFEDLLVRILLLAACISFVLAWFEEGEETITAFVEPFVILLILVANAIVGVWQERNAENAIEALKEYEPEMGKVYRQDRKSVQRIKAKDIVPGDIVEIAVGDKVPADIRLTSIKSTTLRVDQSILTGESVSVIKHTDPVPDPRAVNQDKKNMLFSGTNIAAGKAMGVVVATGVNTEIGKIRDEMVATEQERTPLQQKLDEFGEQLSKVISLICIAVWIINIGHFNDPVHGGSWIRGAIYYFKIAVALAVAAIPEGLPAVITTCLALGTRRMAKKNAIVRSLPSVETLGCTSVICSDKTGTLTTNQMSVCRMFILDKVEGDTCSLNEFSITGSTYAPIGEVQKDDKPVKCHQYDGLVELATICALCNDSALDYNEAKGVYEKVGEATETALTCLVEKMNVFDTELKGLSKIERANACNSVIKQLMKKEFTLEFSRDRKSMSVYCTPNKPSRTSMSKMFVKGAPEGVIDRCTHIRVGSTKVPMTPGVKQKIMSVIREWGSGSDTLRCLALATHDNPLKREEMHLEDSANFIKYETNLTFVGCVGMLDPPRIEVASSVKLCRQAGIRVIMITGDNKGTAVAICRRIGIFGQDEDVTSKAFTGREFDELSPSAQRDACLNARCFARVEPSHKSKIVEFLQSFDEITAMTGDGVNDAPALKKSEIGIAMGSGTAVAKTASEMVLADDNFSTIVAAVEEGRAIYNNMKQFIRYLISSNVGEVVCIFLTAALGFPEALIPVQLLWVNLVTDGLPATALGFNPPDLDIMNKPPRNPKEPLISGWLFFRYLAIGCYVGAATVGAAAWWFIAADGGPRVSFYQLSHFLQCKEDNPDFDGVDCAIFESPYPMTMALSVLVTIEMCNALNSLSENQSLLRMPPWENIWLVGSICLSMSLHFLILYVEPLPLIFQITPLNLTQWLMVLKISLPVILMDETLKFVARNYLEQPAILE
Text: (§1) Cyclopropanol derivatives have a variety of biological activities including enzyme inhibition and antibacterial and anticancer properties.[47]−[50] However, there have been no published reports on cyclopropanol-containing molecules specifically acting as modulators of RyRs and/or activators of SERCA. To investigate more directly whether the compounds influence the SERCA2 activity, we performed nicotinamide adenine dinucleotide (NADH) fluorescence-coupled ATPase assay according to Radnai et al.[51] In this assay, the change in NADH coenzyme fluorescence reflects the level of the consumption of ATP, which we took as indicator of SERCA2 activity.[51],[52] ATP hydrolysis by SERCA2 is required to pump calcium ions into the SR. We assume that a higher rate of ATP hydrolysis reflects an increase in SERCA2 ATPase activity that leads to a greater pumping of calcium ions into the SR.
(§2) We observed the rate of NADH oxidation, which is coupled to ATP hydrolysis, by measuring changes in NADH intrinsic fluorescence over time after ATP injection into microsomal membranes enriched in SR vesicles isolated from mouse heart ventricles (mouse SR) and HEK-293T cells (HEK-293 ER). The presence of SERCA2 in mouse SR and HEK-293 ER of isolated microsomal vesicles was confirmed by Western blotting (Figures S5 and S6; for details see Experimental Section). The NADH fluorescence decrease was recorded on a multiwell plate reader TECAN Spark 20M (λex = 380 nm, λem = 470 nm). […] Consistent with our previous experiment on HL-1 cells, we observed a strong decrease in NADH fluorescence reflecting an increase in SERCA2a activity in SR microsomes derived from mouse heart ventricles (n = 3–5) in solutions containing the tested compounds compared to the 0.1 v/v% DMSO sample (Figure 6). […] Similar results were obtained in cardiac SR vesicles from the mouse heart. […] This difference may indicate isoform-specific effects of our compound in HEK-293 cells expressing mostly SERCA2b[53] versus mouse SR vesicles containing mostly SERCA2a.[54] In both experiments, we used CDN1163 as a positive control.
All animal procedures were performed in accordance with Directive 2010/63/EU of the European Parliament and the Council on the protection of animals used in research as well as Animal Welfare Law of the Federal Republic of Germany (Tierschutzgesetz der Bundesrepublik Deutschland, TierSchG). […] All mice were housed with a 12 h light/dark cycle with free access to food and water. Adult C57BL/6N mice of both genders were sedated with isoflurane in a sealed container and quickly euthanized by cervical dislocation. Heart ventricles were taken out instantly, washed with ice-cold PBS plus complete, cut into smaller pieces, and snap frozen in liquid nitrogen straight away.
Lysis buffer thawed on ice (10 mM EDTA, 10 mM HEPES, cOmplete, pH 7.4) was added, and the ventricles were homogenized with a Qiagen Cellruptor for 20 s. On ice, an equal volume of restoration buffer (500 mM sucrose, 10 mM HEPES, cOmplete, pH7.2) was added and briefly mixed. The homogenate was centrifuged at 10^4 × g for 20 min at 4 °C. The supernatant was collected and centrifuged again for another hour (10^5 × g at 4 °C). Then, the pellet was carefully resuspended in resuspension buffer (250 mM sucrose, 10 mM HEPES, cOmplete, pH 7.2) on ice by pipetting the solution up and down until fully dissolved. The obtained solution was diluted to a protein concentration of 5 μg/μL with the resuspension buffer, and the aliquots were snap frozen in liquid nitrogen and then stored at −80 °C until usage.
To determine whether new compounds could increase the SERCA2 activity, HEK-293 microsomes (40–150 μg of total protein) or mouse ventricular microsomes (1–20 μg of total protein) were diluted in 100 μL of the assay buffer used for measurement of SERCA activity (described below) and incubated at room temperature for 5 min prior to the experiments. […]

[1] = CytoTox-Glo Cytotoxicity Assay; type: cell-based; conditions: mouse; HL-1 cells, 100 μM solutions, 24 h incubation
Description: Cell viability was assessed using the CytoTox-Glo Cytotoxicity Assay according to the manufacturing procedure (Promega GmbH). Briefly, HL-1 cells were cultivated for 24 h in black-walled, clear-bottom 96-well microplates (Corning) covered with fibronectin in DMEM, containing different concentrations of the tested compound (10,000 cells/well). Luminescence of a luminogenic peptide substrate was measured before and after the addition of the lysis reagent (digitonin). The viable cell contribution was determined by a subtractive method. 0.1% DMSO-treated cells were taken as a control.

SERCA2 = biological target: T2, SERCA2 (Homo sapiens, UniProt P16615); assay: NADH-coupled ATPase assay on microsomal membrane vesicles from HEK-293T cells (HEK-293 ER); type: biochemical; conditions: for SERCA2 ATPase activity in HEK-293 ER microsomes (in words): 10 μM, vs 0.1 v/v% DMSO; for SERCA2a HEK ER effect class: 10 μM (1 μM for 12b per Figure S7), microsomal membrane vesicles
T2 construct: endogenous in cells; host or cells: HEK-293T cells, microsomal membrane vesicles (HEK-293 ER)
T2 sequence (P16615 whole entry): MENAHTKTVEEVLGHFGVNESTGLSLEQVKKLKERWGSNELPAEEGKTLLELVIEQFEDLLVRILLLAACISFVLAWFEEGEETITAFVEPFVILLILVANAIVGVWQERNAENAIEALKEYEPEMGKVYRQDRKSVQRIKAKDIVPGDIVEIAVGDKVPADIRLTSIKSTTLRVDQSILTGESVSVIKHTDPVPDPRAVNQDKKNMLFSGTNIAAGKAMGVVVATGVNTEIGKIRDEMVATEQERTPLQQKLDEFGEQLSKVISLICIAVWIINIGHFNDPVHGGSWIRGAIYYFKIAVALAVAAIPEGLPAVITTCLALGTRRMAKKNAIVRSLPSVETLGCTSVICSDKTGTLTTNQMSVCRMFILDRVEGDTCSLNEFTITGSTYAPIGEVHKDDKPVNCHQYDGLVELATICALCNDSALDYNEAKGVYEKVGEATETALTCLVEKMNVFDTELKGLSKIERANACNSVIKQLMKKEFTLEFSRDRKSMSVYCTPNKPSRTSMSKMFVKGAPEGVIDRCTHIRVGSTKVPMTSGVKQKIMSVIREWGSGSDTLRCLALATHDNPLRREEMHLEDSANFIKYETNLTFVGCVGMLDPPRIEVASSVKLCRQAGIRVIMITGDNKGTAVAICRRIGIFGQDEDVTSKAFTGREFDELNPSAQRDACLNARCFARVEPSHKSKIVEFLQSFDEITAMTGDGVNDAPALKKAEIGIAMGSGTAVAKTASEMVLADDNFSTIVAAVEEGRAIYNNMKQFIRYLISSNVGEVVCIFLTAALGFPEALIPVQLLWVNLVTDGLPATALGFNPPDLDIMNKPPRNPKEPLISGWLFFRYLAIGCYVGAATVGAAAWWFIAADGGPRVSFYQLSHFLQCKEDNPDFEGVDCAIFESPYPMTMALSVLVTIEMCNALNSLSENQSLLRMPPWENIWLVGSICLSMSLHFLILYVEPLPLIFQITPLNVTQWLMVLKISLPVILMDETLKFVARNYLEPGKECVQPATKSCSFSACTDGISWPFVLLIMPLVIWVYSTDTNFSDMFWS
Text: as §1, §2
Isolation of microsomal membrane vesicles from HEK-293T cells (HEK-293 ER) was performed according to Stewart et al.[61] HEK-293T cells were harvested with Trypsin/EDTA, washed twice with ice-cold PBS containing protease inhibitor cocktail (cOmplete, Roche, Mannheim, Germany), and centrifuged 800 × g for 5 min. The pellet was resuspended in ice-cold lysis buffer (1 mM EDTA, 10 mM HEPES, cOmplete, pH 7.4) and incubated on ice for 20 min. After the cells were homogenized with a tight-fitting Dounce homogenizer (10–20 strokes), an equal volume of restoration buffer (500 mM sucrose, 10 mM HEPES, cOmplete, pH 7.2) was added and the cells were homogenized again (10–20 strokes). The homogenate was centrifuged at 10,000 × g for 20 min at 4 °C. The supernatant was collected and centrifuged again for another 2 h (10^5 × g at 4 °C). Then, the pellet was carefully resuspended in resuspension buffer (250 mM sucrose, 10 mM HEPES, cOmplete, pH 7.2) on ice by pipetting the solution up and down until it was fully dissolved. The obtained solution was diluted to a protein concentration of 15–20 μg/μL with the resuspension buffer; the aliquots were snap frozen in liquid nitrogen and stored at −80 °C until usage.
To determine whether new compounds could increase the SERCA2 activity, HEK-293 microsomes (40–150 μg of total protein) or mouse ventricular microsomes (1–20 μg of total protein) were diluted in 100 μL of the assay buffer used for measurement of SERCA activity (described below) and incubated at room temperature for 5 min prior to the experiments. The measurements of SERCA2 activity were made at 28 °C by using a NADH-coupled ATPase assay as described in Radnai et al. with slight modifications.[51] Briefly, the assay buffer contained 60 mM MOPS, 120 mM KCl, 6 mM MgCl2, 1 mM EGTA, 5 mM NaN3, 0.5 mM phosphoenolpyruvate, and 1.5 mM CaCl2, pH 7.0. […]

**Q.** For `COc1ccc2c(c1)CN(CCCCNCCCCC1(O)CC1)CCS2` [11a, 1-(4-((4-(7-Methoxy-2,3-dihydrobenzo[1,4-f]thiazepin-4(5H)-yl)butyl)amino)butyl)cyclopropan-1-ol], which “SERCA2a mouse SR effect class” value (SERCA2a) is on record?
**A.** +

**Q.** And the viability at 24 h, 100 μM [1]?
**A.** 84%

**Q.** And the “SERCA2 ATPase activity in HEK-293 ER microsomes (in words)” value (SERCA2)?
**A.** did not evoke a significant increase in ATPase activity; also recorded: could not detect SERCA2 activation

**Q.** Which “SERCA2a mouse SR effect class” value (SERCA2a) does the source give for `COc1ccc(OCCCNCCCCC2(O)CC2)cc1` [11b, 1-(4-((3-(4-Methoxyphenoxy)propyl)amino)butyl)cyclopropan-1-ol] here?
**A.** +

**Q.** What about the viability at 24 h, 100 μM [1] of the same compound?
**A.** 100%

**Q.** And the “SERCA2 ATPase activity in HEK-293 ER microsomes (in words)” value (SERCA2)?
**A.** did not evoke a significant increase in ATPase activity

**Q.** Which results are given for `COc1ccc(SCCCNCCCCC2(O)CC2)cc1` [11c, 1-(4-((3-((4-Methoxyphenyl)thio)propyl)amino)butyl)cyclopropan-1-ol]?
**A.** SERCA2a mouse SR effect class (SERCA2a): +++; viability at 24 h, 100 μM [1]: 73%; SERCA2a HEK ER effect class (SERCA2): +; SERCA2 ATPase activity in HEK-293 ER microsomes (in words) (SERCA2): significant activation of SERCA2 ATPase

**Q.** What does the source list for `COc1ccc2c(c1)CN(CCCCC1(O)CC1)CCS2` [11d, 1-(4-(7-Methoxy-2,3-dihydrobenzo[1,4-f]thiazepin-4(5H)-yl)butyl)cyclopropan-1-ol]?
**A.** SERCA2a mouse SR effect class (SERCA2a): ++; SERCA2a ATPase activity in mouse SR vesicles (in words) (SERCA2a): moderate; viability at 24 h, 100 μM [1]: 95%; SERCA2a HEK ER effect class (SERCA2): +; SERCA2 ATPase activity in HEK-293 ER microsomes (in words) (SERCA2): significant activation of SERCA2 ATPase; also recorded: slight

**Q.** Which “SERCA2a mouse SR effect class” value (SERCA2a) does the source give for `COc1ccc2c(c1)CN(CCCCN(CCCCC1(O)CC1)CCCCC1(O)CC1)CCS2` [12a, 1,1′-(((4-(7-Methoxy-2,3-dihydrobenzo[1,4-f]thiazepin-4(5H)-yl)butyl)azanediyl)bis(butane-4,1-diyl))bis(cyclopropan-1-ol)] here?
**A.** +++

**Q.** And the EC50 (SERCA2a; ATPase activity, value, interval)?
**A.** 383 nM

**Q.** And the viability at 24 h, 100 μM [1]?
**A.** 80%

**Q.** And the “SERCA2a HEK ER effect class” value (SERCA2)?
**A.** ++

**Q.** What about the EC50 (SERCA2; ATPase activity, value, interval, read-out: SERCA2a HEK ER (EC50)) of the same compound?
**A.** 16 nM

**Q.** What does the source list for `COc1ccc(SCCCN(CCCCC2(O)CC2)CCCCC2(O)CC2)cc1` [12c, 1,1′-(((3-((4-Methoxyphenyl)thio)propyl)azanediyl)bis(butane-4,1-diyl))bis(cyclopropan-1-ol)]?
**A.** SERCA2a mouse SR effect class (SERCA2a): +; viability at 24 h, 100 μM [1]: 90%; SERCA2a HEK ER effect class (SERCA2): +

**Q.** Which results are given for `COc1ccc2c(c1)CN(Cc1ccc(C(=O)O)cc1)CCS2` [ARM210, reference compound]?
**A.** SERCA2a mouse SR effect class (SERCA2a): ++; SERCA2a ATPase activity in mouse SR vesicles (in words) (SERCA2a): improvement of ATPase activity; viability at 24 h, 100 μM [1]: 90%; SERCA2a HEK ER effect class (SERCA2): +; SERCA2 ATPase activity in HEK-293 ER microsomes (in words) (SERCA2): significant activation of SERCA2 ATPase

Reference: PMC10726367 (Journal of Medicinal Chemistry, 2023)
